Measured values taken from US9629830B2, “EphA4 inhibitors as neuroprotective agents” (The Hong Kong University of Science and Technology, priority 2013, dated 2017).
“Also recorded” adds a separate entry of the source.

target: T1, EphA4 (Rattus norvegicus, UniProt D3ZZK3); assay: Ephrin-A1-induced EphA4 cluster assay in cultured hippocampal neurons; assay type: cell-based; details: 30 μM
T1 construct: endogenous in cells; host or cells: primary rat cortical neurons (A5), primary rat hippocampal neurons (A7)
T1 sequence (D3ZZK3 20-986): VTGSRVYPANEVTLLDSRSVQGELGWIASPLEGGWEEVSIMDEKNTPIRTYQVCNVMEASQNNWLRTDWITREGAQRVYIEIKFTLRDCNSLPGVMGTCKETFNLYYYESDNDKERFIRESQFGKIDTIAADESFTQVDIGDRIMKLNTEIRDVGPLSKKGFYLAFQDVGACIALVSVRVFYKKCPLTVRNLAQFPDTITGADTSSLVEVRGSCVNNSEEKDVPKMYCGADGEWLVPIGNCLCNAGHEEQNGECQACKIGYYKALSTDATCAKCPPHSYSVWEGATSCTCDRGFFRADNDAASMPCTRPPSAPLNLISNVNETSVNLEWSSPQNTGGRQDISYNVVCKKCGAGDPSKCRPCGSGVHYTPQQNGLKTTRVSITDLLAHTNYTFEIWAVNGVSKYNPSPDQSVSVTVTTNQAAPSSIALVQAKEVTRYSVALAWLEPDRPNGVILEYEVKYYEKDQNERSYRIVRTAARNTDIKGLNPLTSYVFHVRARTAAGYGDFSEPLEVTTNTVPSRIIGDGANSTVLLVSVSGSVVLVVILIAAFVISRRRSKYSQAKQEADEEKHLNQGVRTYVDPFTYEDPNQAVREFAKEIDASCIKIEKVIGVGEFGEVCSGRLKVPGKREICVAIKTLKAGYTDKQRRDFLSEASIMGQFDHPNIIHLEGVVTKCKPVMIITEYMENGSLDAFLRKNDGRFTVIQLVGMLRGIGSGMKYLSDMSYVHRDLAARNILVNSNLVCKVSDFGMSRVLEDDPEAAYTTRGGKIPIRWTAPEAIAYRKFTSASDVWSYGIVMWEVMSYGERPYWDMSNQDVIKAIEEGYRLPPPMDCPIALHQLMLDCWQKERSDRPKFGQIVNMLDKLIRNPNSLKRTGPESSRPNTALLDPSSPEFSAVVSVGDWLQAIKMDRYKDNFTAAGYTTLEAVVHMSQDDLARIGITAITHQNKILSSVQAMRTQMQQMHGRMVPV
Protocol: For EphA4 clustering, neurons were stained with anti-EphA4 and anti-Tau-1 antibodies. For the growth cone collapse assay, neurons were stained with Alexa Fluor 555-conjugated phalloidin (Molecular Probes) for filamentous actin and anti-Tau-1 antibody for axons. Collapsed growth cones were scored in a double-blinded manner. The experiments were repeated at least 3 times, and >50 neurons were analyzed for each experiment. Data are presented as mean±SEM.
Rat hippocampal neurons were seeded on 48-well plates coated with poly-D-lysine (50 μg/mL) at 6000 cells per well. Neurons were incubated with Neurobasal medium (Invitrogen) supplemented with 2% B27 (Invitrogen). […] Neurons were then immunostained with anti-EphA4 and anti-Tau-1 antibodies. The cellular imaging and quantification of EphA4 clusters was performed using IN Cell Analyzer 6000 high content assay system (GE Healthcare). EphA4 clusters were quantified by calculating the proportion of total area of EphA4 clusters on axons against Tau positive area. Statistical analysis was performed with one-way ANOVA followed by Newman-Keuls Multiple Comparison Test (Prism 5 GraphPad Software).

Row | Compound | potency on EphA4 inhibition (EphA4 clusters) compared to Rhy (words)
1 | CCC1CN2CCC3(C(=O)N(CCCCCCBr)c4ccccc43)C2CC1C(=COC)C(=O)OC (stereo not shown) [RHY-27] | higher potency on EphA4 inhibition
2 | CC[C@H]1CN2CC[C@]3(C(=O)N(CCCCCCCCOc4ccc(OC)c(OC)c4)c4ccccc43)[C@@H]2C[C@@H]1/C(=C\OC)C(=O)OC [RHY-37] | more potent effect on EphA4 inhibition than Rhy
3 | CCC1CN2CCC3(C(=O)N(CCCCCCCCCOC(=O)C=Cc4ccc(OC)cc4)c4ccccc43)C2CC1C(=COC)C(=O)OC (stereo not shown) [RHY-59] | more potent; also recorded: higher potency on EphA4 inhibition than Rhy
4 | CCC1CN2CCC3(C(=O)N(CCCCCCOc4ccc(OC)c(OC)c4)c4ccccc43)C2CC1C(=COC)C(=O)OC (stereo not shown) [RHY-39] | more potent effect on EphA4 inhibition than Rhy
5 | CC[C@H]1CN2CC[C@]3(C(=O)N(CCCCCCOc4ccc(OCc5ccccc5)cc4)c4ccccc43)[C@@H]2C[C@@H]1/C(=C\OC)C(=O)OC [RHY-42] | higher potency on EphA4 inhibition
6 | CCC1CN2CCC3(C(=O)N(CCCCCCCCCOc4ccc(OCc5ccccc5)cc4)c4ccccc43)C2CC1C(=COC)C(=O)OC (stereo not shown) [RHY-55] | higher potency on EphA4 inhibition
7 | CCC1CN2CCC3(C(=O)N(CCCCCCOC(=O)c4cc(OC)ccc4[N+](=O)[O-])c4ccccc43)C2CC1C(=COC)C(=O)OC (stereo not shown) [RHY-40] | more potent; also recorded: higher potency on EphA4 inhibition than Rhy
8 | CCC1CN2CCC3(C(=O)N(CCCCCCCCCOc4ccc(O)cc4)c4ccccc43)C2CC1C(=COC)C(=O)OC (stereo not shown) [RHY-60] | more potent effect on EphA4 inhibition than Rhy
9 | CC[C@H]1CN2CC[C@]3(C(=O)N(CCCCCCCOc4ccc(O)cc4)c4ccccc43)[C@@H]2C[C@@H]1/C(=C\OC)C(=O)OC [RHY-48] | comparable potency to Rhy
10 | CC[C@H]1CN2CC[C@]3(C(=O)N(CCCCCCCOC(=O)c4cc(OC)ccc4[N+](=O)[O-])c4ccccc43)[C@@H]2C[C@@H]1/C(=C\OC)C(=O)OC [RHY-45] | more potent; also recorded: higher potency on EphA4 inhibition than Rhy
11 | CCC1CN2CCC3(C(=O)N(CCCCCCCCOc4ccc(O)cc4)c4ccccc43)C2CC1C(=COC)C(=O)OC (stereo not shown) [RHY-54] | significantly more potent than Rhy; also recorded: more potent effect on EphA4 inhibition than Rhy
12 | CCC1CN2CCC3(C(=O)N(CCCCCCCCOC(=O)c4ccc(Br)cc4I)c4ccccc43)C2CC1C(=COC)C(=O)OC (stereo not shown) [RHY-52] | More Potent Effect on EphA4 Inhibition than Rhy
13 | CC[C@H]1CN2CC[C@]3(C(=O)N(CCCCCCCCOC(=O)c4cc(OC)ccc4[N+](=O)[O-])c4ccccc43)[C@@H]2C[C@@H]1/C(=C\OC)C(=O)OC [RHY-50] | more potent; also recorded: higher potency on EphA4 inhibition than Rhy
14 | CCC1CN2CCC3(C(=O)N(CCCCCCCCOc4ccc(OCc5ccccc5)cc4)c4ccccc43)C2CC1C(=COC)C(=O)OC (stereo not shown) [RHY-49] | higher potency on EphA4 inhibition
15 | CCC1CN2CCC3(C(=O)N(CCCCCCCBr)c4ccccc43)C2CC1C(=COC)C(=O)OC (stereo not shown) [RHY-35] | higher potency on EphA4 inhibition
16 | CCC1CN2CCC3(C(=O)N(CCCCCCCCCBr)c4ccccc43)C2CC1C(=COC)C(=O)OC (stereo not shown) [RHY-31] | higher potency on EphA4 inhibition
17 | CCC1CN2CCC3(C(=O)N(CCCCCCCCBr)c4ccccc43)C2CC1C(=COC)C(=O)OC (stereo not shown) [RHY-34] | higher potency on EphA4 inhibition
18 | CCC1CN2CCC3(C(=O)N(CCCCCCCOc4ccc(OC)c(OC)c4)c4ccccc43)C2CC1C(=COC)C(=O)OC (stereo not shown) [RHY-43] | more potent effect on EphA4 inhibition than Rhy

same assay, conditions: 30 μM; listed as RHY60

Row | Compound | potency on EphA4 inhibition (EphA4 clusters) compared to Rhy (words)
19 | CCC1CN2CCC3(C(=O)N(CCCCCCCCCOc4ccc(O)cc4)c4ccccc43)C2CC1C(=COC)C(=O)OC (stereo not shown) [RHY-60] | significantly more potent than Rhy

same assay, conditions: 50 μM

Row | Compound | potency on EphA4 inhibition (EphA4 clusters) compared to Rhy (words) | inhibitory effect on EphA4 cluster formation
20 | CCC1CN2CCC3(C(=O)N(CCCCCCCCCOC(=O)c4ccc(OC)c(OC)c4)c4ccccc43)C2CC1C(=COC)C(=O)OC (stereo not shown) [RHY-57] | more potent activity than Rhy; also recorded: more potent effect on EphA4 inhibition than Rhy | 
21 | CC[C@H]1CN2CC[C@]3(C(=O)N(CCCCCCCNCCN4CCCC4)c4ccccc43)[C@@H]2C[C@@H]1/C(=C\OC)C(=O)OC [RHY-46] | higher potency on EphA4 inhibition | 
22 | C=CCN1C(=O)C2(CCN3CC(CC)C(C(=COC)C(=O)OC)CC32)c2ccccc21 (stereo not shown) [RHY-17] | significantly reduced the EphA4 clusters compared to Rhy | most significant
23 | CCC1CN2CCC3(C(=O)N(CCCCCCCCCNCCCCCCN)c4ccccc43)C2CC1C(=COC)C(=O)OC (stereo not shown) [RHY-32] | higher potency on EphA4 inhibition | 
24 | CCC1CN2CCC3(C(=O)N(CCCCCCNCCN4CCCC4)c4ccccc43)C2CC1C(=COC)C(=O)OC (stereo not shown) [RHY-41] | higher potency on EphA4 inhibition | 
25 | CCC1CN2CCC3(C(=O)N(CC=Cc4ccccc4)c4ccccc43)C2CC1C(=COC)C(=O)OC (stereo not shown) [RHY-9] | significantly reduced the EphA4 clusters compared to Rhy | most significant
26 | CCC1CN2CCC3(C(=O)N(Cc4ccccc4-c4ccccc4)c4ccccc43)C2CC1C(=COC)C(=O)OC (stereo not shown) [RHY-10] | significantly reduced the EphA4 clusters compared to Rhy | most significant
27 | CCC1CN2CCC3(C(=O)N(CC(=O)c4ccc(OC)cc4)c4ccccc43)C2CC1C(=COC)C(=O)OC (stereo not shown) [RHY-28] | significantly reduced the EphA4 clusters compared to Rhy | most significant
28 | CCC1CN2CCC3(C(=O)N(CCCCCCCOC(=O)c4ccc(OC)c(OC)c4)c4ccccc43)C2CC1C(=COC)C(=O)OC (stereo not shown) [RHY-38] | more potent activity than Rhy; also recorded: more potent effect on EphA4 inhibition than Rhy | 
29 | CCC1CN2CCC3(C(=O)N(Cc4cccc(Cl)c4)c4ccccc43)C2CC1C(=COC)C(=O)OC (stereo not shown) [RHY-19] | significantly reduced the EphA4 clusters compared to Rhy | most significant

same assay, conditions: dose-dependent experiment, FIG. 17

Row | Compound | inhibitory effect on EphA4 clusters (potency) compared to Rhy [fold]
30 | CC[C@H]1CN2CC[C@]3(C(=O)N(CCCCCCCCOc4ccc(OC)c(OC)c4)c4ccccc43)[C@@H]2C[C@@H]1/C(=C\OC)C(=O)OC [RHY-37] | 12

same assay, conditions: same assay system; no data given

Row | Compound | potency as EphA4 inhibitor
31 | CCC1CN2CCC3(C(=O)N(CCCCCCCCCCCCl)c4ccccc43)C2CC1C(=COC)C(=O)OC (stereo not shown) [RHY-66] | tested and verified
32 | CCC1CN2CCC3(C(=O)N(CCCCCCCCCCCCCl)c4ccccc43)C2CC1C(=COC)C(=O)OC (stereo not shown) [RHY-67] | tested and verified
33 | CCC1CN2CCC3(C(=O)N(CCCCl)c4ccccc43)C2CC1C(=COC)C(=O)OC (stereo not shown) [RHY-61] | tested and verified
34 | CCC1CN2CCC3(C(=O)N(CCCCCCCl)c4ccccc43)C2CC1C(=COC)C(=O)OC (stereo not shown) [RHY-63] | tested and verified
35 | CCC1CN2CCC3(C(=O)N(CCCCCCCCCCl)c4ccccc43)C2CC1C(=COC)C(=O)OC (stereo not shown) [RHY-62] | tested and verified
